System: harmful plant species
Assay: Specific trial examples: binary compositions applied by the post-emergence method, synergistic effect according to Colby (Tables 3.1-3.2)
Type: in vivo
Conditions: for Herbicidal action against Veronica hederifolia: g a.i./ha: r294 5, r295 90
Protocol: When the observed efficacies already exceed the formal sum total of the values of the tests with individual applications, they also exceed the expected value according to Colby, which is calculated using the formula below and is likewise regarded as an indication of synergism (cf. S. R. Colby; in Weeds 15 (1967) p. 20 to 22):
Seeds or rhizome pieces of mono- and dicotyledonous weeds are placed in sandy loam in pots, covered with soil and grown in a greenhouse under good growth conditions (temperature, air humidity, water supply). Three weeks after sowing, the test plants are treated at the three-leaf stage with the compositions according to the invention. The compositions according to the invention formulated as spray powders or as emulsion concentrates are sprayed onto the green plant parts in various dosages with an application rate of 300 to 800 l/ha of water (equivalent).
The sum total of the effects of the individual applications is reported under E^A; Expected values according to Colby are each reported under E^C.
The rating period is reported in days after application (DAT).

Question: How did the “Herbicidal action against Digitaria sanguinalis” value (28 DAT, g a.i./ha: r8 270, r9 90, r10 30, r11 15, r12 5) turn out when `O=C(Nc1ccc(F)cc1F)c1cccnc1Oc1cccc(C(F)(F)F)c1` [(B2.18) Diflufenican] was run?
Answer: 20%

Question: What about the “Herbicidal action against Setaria faberi” value (28 DAT, g a.i./ha: r35 270, r36 90, r37 30, r38 15, r39 5, r40 1.67) of the same compound?
Answer: 0%

Question: What about the “Herbicidal action against Setaria viridis” value (28 DAT, g a.i./ha: r51 270, r52 15, r53 5, r54 1.67) of the same compound?
Answer: 10%

Question: And the “Herbicidal action against Alopecurus myosuroides (sensitive biotype)” value (28 DAT, g a.i./ha: r149 15, r150 5, r151 270, r152 90, r153 30)?
Answer: 0%

Question: What about the “Herbicidal action against Papaver rhoeas” value (28 DAT, g a.i./ha: r231 15, r232 5, r233 270) of the same compound?
Answer: 30%

Question: What about the “Herbicidal action against Veronica hederifolia” value (28 DAT) of the same compound?
Answer: 60%

Question: And the “Herbicidal action against Echinochloa crus-galli” value ((Z32) 28 DAT, g a.i./ha: r372 270, r373 90, r374 30, r375 5)?
Answer: 10%

Question: What about the “Herbicidal action against Centaurea cyanus” value ((Z90) 14 DAT, g a.i./ha: r533 16, r534 4, r535 1, r536 90, r537 30) of the same compound?
Answer: 50%

Question: What about the “Herbicidal action against Lamium purpureum L.” value ((Z90) 28 DAT, g a.i./ha: r586 16, r587 30) of the same compound?
Answer: 10%

Question: And the “Herbicidal action against Lolium rigidum” value ((Z90) 28 DAT, g a.i./ha: r594 16, r595 30)?
Answer: 0%

Question: And the “Herbicidal action against Matricaria inodora” value ((Z90) 28 DAT, g a.i./ha: r602 4, r603 90)?
Answer: 10%

Question: And the “Herbicidal action against Viola tricolor” value ((Z90) 28 DAT, g a.i./ha: r624 4, r625 270)?
Answer: 40%

Question: What about the “Herbicidal action against Alopecurus myosuroides” value ((Z119) 14 DAT, g a.i./ha: r632 16, r633 4, r634 30, r635 270) of the same compound?
Answer: 20%

Question: What about the “Herbicidal action against Lolium rigidum” value ((Z119) 14 DAT, g a.i./ha: r682 16, r683 30) of the same compound?
Answer: 10%

Question: And the “Herbicidal action against Phalaris minor” value ((Z119) 14 DAT, g a.i./ha: r709 4, r710 270)?
Answer: 20%

Question: And the “Herbicidal action against Poa annua L.” value ((Z119) 14 DAT, g a.i./ha: r729 4, r730 270)?
Answer: 20%

Question: And the “Herbicidal action against Centaurea cyanus” value ((Z119) 28 DAT, g a.i./ha: r654 16, r655 30)?
Answer: 10%

Question: And the “Herbicidal action against Galium aparine” value ((Z119) 28 DAT, g a.i./ha: r662 1, r663 270)?
Answer: 20%

Question: And the “Herbicidal action against Lolium rigidum” value ((Z119) 28 DAT, g a.i./ha: r690 16, r691 30)?
Answer: 0%

Question: What about the “Herbicidal action against Abutilon theophrasti” value (Z61 28 DAT, g a.i./ha: r459 30, r460 15) of the same compound?
Answer: 10%

Question: What about the “Herbicidal action against Brachiaria platyphylla” value (Z61 28 DAT, g a.i./ha: r479 30, r480 1.7) of the same compound?
Answer: 10%

Question: What about the “Herbicidal action against Eleusine indica” value (Z61 28 DAT, g a.i./ha: r487 270, r488 5) of the same compound?
Answer: 20%

Question: Which “Herbicidal action 28 DAT against Lolium rigidum (resistant biotype)” value (1.67 g a.i./ha) does the source give for `C=C[C@]1(C(=O)N[C@H]2CO[C@@H](C(=O)NS(=O)(=O)C(F)(F)F)C2)CC(c2cc(F)cc(F)c2)=NO1` (relative stereo) [Compound A1, (5S)-3-(3,5-difluorophenyl)-N-[rel-(3R,5R)-5-(trifluoromethylsulfonylcarbamoyl)tetrahydrofuran-3-yl]-5-vinyl-4H-isoxazole-5-carboxamide] here?
Answer: 0%

Question: What about the “Herbicidal action 28 DAT against Lolium rigidum (sensitive biotype)” value (1.67 g a.i./ha) of the same compound?
Answer: 0%

Question: What about the “Herbicidal action 28 DAT against Alopecurus myosuroides (sensitive biotype)” value (5 g a.i./ha) of the same compound?
Answer: 0%

Question: What about the “Herbicidal action 28 DAT against Avena fatua” value (5 g a.i./ha) of the same compound?
Answer: 50%

Question: What about the “Herbicidal action 28 DAT against Bromus sterilis” value (5 g a.i./ha) of the same compound?
Answer: 0%

Question: What about the “Herbicidal action 28 DAT against Centaurea cyanus” value (5 g a.i./ha) of the same compound?
Answer: 20%

Question: What about the “Herbicidal action 28 DAT against Euphorbia heterophylla” value (5 g a.i./ha) of the same compound?
Answer: 0%

Question: What about the “Herbicidal action 28 DAT against Galium aparine” value (5 g a.i./ha) of the same compound?
Answer: 0%

Question: What about the “Herbicidal action 28 DAT against Hordeum murinum” value (5 g a.i./ha) of the same compound?
Answer: 0%

Question: What about the “Herbicidal action 28 DAT against Ipomoea purpurea” value (5 g a.i./ha) of the same compound?
Answer: 0%

Question: And the “Herbicidal action 28 DAT against Lamium purpureum” value (5 g a.i./ha)?
Answer: 20%

Question: And the “Herbicidal action 28 DAT against Lolium rigidum (resistant biotype)” value (5 g a.i./ha)?
Answer: 0%

Question: What about the “Herbicidal action 28 DAT against Lolium rigidum (sensitive biotype)” value (5 g a.i./ha) of the same compound?
Answer: 0%

Question: What about the “Herbicidal action 28 DAT against Phalaris minor” value (5 g a.i./ha) of the same compound?
Answer: 0%

Question: What about the “Herbicidal action 28 DAT against Polygonum convolvulus” value (5 g a.i./ha) of the same compound?
Answer: 0%

Question: And the “Herbicidal action 28 DAT against Polygonum convulvulus” value (5 g a.i./ha)?
Answer: 50%

Question: What about the “Herbicidal action 28 DAT against Raphanus raphanistrum” value (5 g a.i./ha) of the same compound?
Answer: 80%

Question: What about the “Herbicidal action 28 DAT against Stellaria media” value (5 g a.i./ha) of the same compound?
Answer: 0%

Question: And the “Herbicidal action 28 DAT against Veronica hederifolia” value (5 g a.i./ha)?
Answer: 0%

Question: What about the “Herbicidal action 28 DAT against Viola tricolor” value (5 g a.i./ha) of the same compound?
Answer: 0%

Question: What about the “Herbicidal action 28 DAT against Alopecurus myosuroides (resistant biotype)” value (15 g a.i./ha) of the same compound?
Answer: 60%

Question: And the “Herbicidal action 28 DAT against Alopecurus myosuroides (sensitive biotype)” value (15 g a.i./ha)?
Answer: 60%

Question: And the “Herbicidal action 28 DAT against Centaurea cyanus” value (15 g a.i./ha)?
Answer: 30%

Question: And the “Herbicidal action 28 DAT against Euphorbia heterophylla” value (15 g a.i./ha)?
Answer: 10%

Question: And the “Herbicidal action 28 DAT against Galium aparine” value (15 g a.i./ha)?
Answer: 30%

Question: What about the “Herbicidal action 28 DAT against Ipomoea purpurea” value (15 g a.i./ha) of the same compound?
Answer: 0%

Question: And the “Herbicidal action 28 DAT against Lamium purpureum” value (15 g a.i./ha)?
Answer: 50%

Question: What about the “Herbicidal action 28 DAT against Lolium rigidum (resistant biotype)” value (15 g a.i./ha) of the same compound?
Answer: 0%

Question: What about the “Herbicidal action 28 DAT against Lolium rigidum (sensitive biotype)” value (15 g a.i./ha) of the same compound?
Answer: 0%

Question: What about the “Herbicidal action 28 DAT against Phalaris minor” value (15 g a.i./ha) of the same compound?
Answer: 60%

Question: What about the “Herbicidal action 28 DAT against Polygonum convolvulus” value (15 g a.i./ha) of the same compound?
Answer: 70%

Question: What about the “Herbicidal action 28 DAT against Polygonum convulvulus” value (15 g a.i./ha) of the same compound?
Answer: 93%

Question: What about the “Herbicidal action 28 DAT against Viola tricolor” value (15 g a.i./ha) of the same compound?
Answer: 20%

Question: And the “Herbicidal action against Echinochloa crus-galli” value (28 DAT, g a.i./ha: r22 270, r23 90, r24 30, r25 5, r26 1.67)?
Answer: 15%

Question: What about the “Herbicidal action against Eleusine indica” value (28 DAT, g a.i./ha: r62 270, r63 30, r64 15, r65 5) of the same compound?
Answer: 40%

Question: What about the “Herbicidal action against Polygonum convulvulus” value (28 DAT, g a.i./ha: r137 270, r138 90, r139 30, r140 5) of the same compound?
Answer: 50%

Question: And the “Herbicidal action against Alopecurus myosuroides (resistant biotype)” value (28 DAT, g a.i./ha: r165 15, r166 90, r167 30)?
Answer: 60%

Question: And the “Herbicidal action against Lolium rigidum (resistant bio type)” value (28 DAT, g a.i./ha: r220 15, r221 5, r222 270, r223 90)?
Answer: 0%

Question: What about the “Herbicidal action against Veronica hederifolia” value (28 DAT) of the same compound?
Answer: 0%

Question: And the “Herbicidal action 28 DAT against Euphorbia heterophylla” value (45 g a.i./ha)?
Answer: 35%

Question: And the “Herbicidal action 28 DAT against Galium aparine” value (45 g a.i./ha)?
Answer: 50%

Question: What about the “Herbicidal action 28 DAT against Ipomoea purpurea” value (45 g a.i./ha) of the same compound?
Answer: 10%

Question: And the “Herbicidal action 28 DAT [%] against Digitaria sanguinalis” value (post-emergence, single active compound (Glyphosate series), g a.i./ha: r765 50, r767 15)?
Answer: 30%

Question: What about the “Herbicidal action 28 DAT [%] against Setaria viridis” value (post-emergence, single active compound (Glyphosate series), g a.i./ha: r786 450, r788 1.67) of the same compound?
Answer: 10%

Question: What about the “Herbicidal action 28 DAT [%] against Abutilon theophrasti” value (post-emergence, single active compound (Glyphosate series), g a.i./ha: r796 450, r798 5) of the same compound?
Answer: 0%

Question: What about the “Herbicidal action 28 DAT [%] against Echinochloa crus-galli” value (post-emergence, single active compound, g a.i./ha: r19 150, r20 50, r21 5) of the same compound?
Answer: 15%

Question: What about the “Herbicidal action 28 DAT [%] against Bromus sterilis” value (post-emergence, single active compound, g a.i./ha: r172 5, r173 1.67, r174 450) of the same compound?
Answer: 0%

Question: And the “Herbicidal action 28 DAT [%] against Galium aparine” value (post-emergence, single active compound, g a.i./ha: r183 5, r184 50)?
Answer: 0%

Question: And the “Herbicidal action 28 DAT [%] against Lamium purpureum” value (post-emergence, single active compound, g a.i./ha: r204 45, r205 50)?
Answer: 70%

Question: And the “Herbicidal action 28 DAT [%] against Lolium rigidum (sensitive biotype)” value (post-emergence, single active compound, g a.i./ha: r214 15, r215 150, r216 50)?
Answer: 0%

Question: And the “Herbicidal action 28 DAT [%] against Lolium rigidum (resistant biotype)” value (post-emergence, single active compound, g a.i./ha: r224 15, r225 5, r226 150, r227 50)?
Answer: 0%

Question: What about the “Herbicidal action 28 DAT [%] against Papaverrhoeas” value (post-emergence, single active compound, g a.i./ha: r235 5, r236 450, r237 50) of the same compound?
Answer: 40%

Question: And the “Herbicidal action 28 DAT [%] against Raphanus raphanistrum” value (post-emergence, single active compound, g a.i./ha: r282 5, r283 150, r284 50)?
Answer: 80%

Question: And the “Herbicidal action 28 DAT [%] against Veronica hederifolia” value (post-emergence, single active compound, g a.i./ha: r292 5, r293 150)?
Answer: 0%

From patent US20220053762A1, “HERBICIDAL COMPOSITIONS” (Bayer Aktiengesellschaft, priority 2018, published 2022)
